Measurements: patent US10561736B1, “Apoptosis inhibitor formulations for prevention of hearing loss” (Spiral Therapeutics, Inc., priority 2019, dated 2020)
“Also recorded” adds a separate entry of the source.

Key:
[1] = tested on: CisPt-induced hearing loss; assay: model of CisPt-induced hearing loss in rats; format: in vivo; conditions: rat
Description: A model of CisPt-induced hearing loss in rats was evaluated to test the in vivo efficacy of LPT99. Ototoxicity was induced by intraperitoneal (IP) slow infusion of CisPt at doses that compared with those used in human preventions (eg, 10 mg/kg). LPT99 was administered IT 30 minutes before CisPt was given.
The protective effect of LPT99 was evaluated 3 days after CisPt administration by functional measures, such as auditory brainstem response (ABR) threshold shift, DPOAE, and expression of biomarkers of apoptosis in cochlea and cytocochleograms.

[2] = tested on: Chinese hamster ovary (CHO) cell; assay: in vitro CHO cell aberration assay; format: cell-based; conditions: presence or absence of S9 metabolism
[3] = tested on: BALB/c 3T3 mouse fibroblasts; assay: in vitro phototoxicity; format: cell-based; conditions: ≤100 μM
Description: An in vitro experiment was performed in BALB/c 3T3 mouse fibroblasts to determine the phototoxic potential of LPT99 at concentrations of ≤100 μM in 3T3 L1 cells.

[4] = non-GLP maximum tolerated dose (MTD) toxicity study, IP; conditions: rat, in vivo, Sprague-Dawley rats
Description: A functional observation battery was conducted with LPT99 administered via IP (intraperitoneal) injection in Sprague-Dawley rats. The study was preceded by a non-GLP maximum tolerated dose (MTD) toxicity study, via the same administration and test system, which determined the MTD of LTP99 to be 1000 mg/kg. LPT99 was suspended in vehicle [0.5% w/v methylcellulose and 0.1% v/v TWEEN®80 in Milli-Q water] and administered intraperitoneally to Sprague-Dawley rats as a single dose at the doses of 100 (low—G2/G2TK), 300 (mid—G3/G3TK), and 750 (high—G4/G4TK) mg/kg body weight. The rats in vehicle control groups (G1/G1TK) received the vehicle alone. The dose volume administered was at an equivolume of 10 mL/kg body weight for all groups.
A GLP acute systemic toxicity study was conducted with LPT99 administered via IP injection in Sprague-Dawley rats. The acute systemic toxicity study was preceded by a non-GLP maximum tolerated dose (MTD) toxicity study, via the same administration and test system, which determined the MTD of LTP99 to be 1000 mg/kg.

[5] = tested on: bacterial reverse mutation; assay: GLP in vitro bacterial reverse mutation assay (Ames test); format: cell-based
[6] = physical stability of drug product vials; format: physicochemical; conditions: for original drug concentration remaining in solution: filtered through 0.2 micron filters
Description: Vials of the drug product were stored at either room temperature or 4° C. for a period greater than three months.

[7] = target: apoptosome complex composed by recombinant Apaf-1, Cytc, deoxyadenosine triphosphate (dATP), and caspase 9 (Homo sapiens, UniProt O14727); assay: inhibition of apoptosome complex formation, recombinant proteins; format: biochemical; conditions: mean ± SD, read-out: apoptosome inhibition (measured as inhibition of caspase 3 activation)
Description: The specificity of LPT99 was tested in vitro on Apaf-1, caspase 3, and caspase 9 (proteins from the apoptotic cascade), and a broad panel of potential pharmacological targets.
LPT99 inhibited the formation of the apoptosome complex composed by recombinant Apaf-1, Cytc, deoxyadenosine triphosphate (dATP), and caspase 9. This activity was measured as inhibition of caspase 3 activation. […] To evaluate the specificity of the inhibition, an assay of caspase 3 and 9 activation was set up with recombinant proteins. The inhibitions of caspase 3 and 9 were 7.6±14.7 and 5.3±3.5, respectively, for LPT99.

A549 cells = assay: proliferation of non-apoptotic A549 cells; format: cell-based; conditions: A549 cells cultured with LPT99 up to 6 days; reversible on removal
Description: The effect of LPT99 on proliferation of non-apoptotic cells was studied. A549 cells were cultured in the presence of LPT99 for up to 6 days; the cell number was monitored by flow cytometry, and doubling time was calculated.

[8] = tested on: noise-induced ABR threshold shift; assay: noise trauma ABR threshold study (FIG. 6); format: in vivo; conditions: TRAUMA+LPT99 group, 10 and 21 days
[9] = metabolic stability in microsomal and S9 hepatic fractions; format: in vitro ADME; conditions: after 1 hour
Source text: The metabolic profile and stability of LPT99 was characterized in human, dog, rabbit, rat, and mouse microsomal and S9 fractions, and in human cytosolic fractions.

caspase 3 = conditions: cellular model of CisPt-induced apoptosis; IEB Symposium abstracts 2016; cited from earlier work

Chain of apoptosome complex composed by recombinant Apaf-1, Cytc, deoxyadenosine triphosphate (dATP), and caspase 9 (O14727 whole entry, one chain of several): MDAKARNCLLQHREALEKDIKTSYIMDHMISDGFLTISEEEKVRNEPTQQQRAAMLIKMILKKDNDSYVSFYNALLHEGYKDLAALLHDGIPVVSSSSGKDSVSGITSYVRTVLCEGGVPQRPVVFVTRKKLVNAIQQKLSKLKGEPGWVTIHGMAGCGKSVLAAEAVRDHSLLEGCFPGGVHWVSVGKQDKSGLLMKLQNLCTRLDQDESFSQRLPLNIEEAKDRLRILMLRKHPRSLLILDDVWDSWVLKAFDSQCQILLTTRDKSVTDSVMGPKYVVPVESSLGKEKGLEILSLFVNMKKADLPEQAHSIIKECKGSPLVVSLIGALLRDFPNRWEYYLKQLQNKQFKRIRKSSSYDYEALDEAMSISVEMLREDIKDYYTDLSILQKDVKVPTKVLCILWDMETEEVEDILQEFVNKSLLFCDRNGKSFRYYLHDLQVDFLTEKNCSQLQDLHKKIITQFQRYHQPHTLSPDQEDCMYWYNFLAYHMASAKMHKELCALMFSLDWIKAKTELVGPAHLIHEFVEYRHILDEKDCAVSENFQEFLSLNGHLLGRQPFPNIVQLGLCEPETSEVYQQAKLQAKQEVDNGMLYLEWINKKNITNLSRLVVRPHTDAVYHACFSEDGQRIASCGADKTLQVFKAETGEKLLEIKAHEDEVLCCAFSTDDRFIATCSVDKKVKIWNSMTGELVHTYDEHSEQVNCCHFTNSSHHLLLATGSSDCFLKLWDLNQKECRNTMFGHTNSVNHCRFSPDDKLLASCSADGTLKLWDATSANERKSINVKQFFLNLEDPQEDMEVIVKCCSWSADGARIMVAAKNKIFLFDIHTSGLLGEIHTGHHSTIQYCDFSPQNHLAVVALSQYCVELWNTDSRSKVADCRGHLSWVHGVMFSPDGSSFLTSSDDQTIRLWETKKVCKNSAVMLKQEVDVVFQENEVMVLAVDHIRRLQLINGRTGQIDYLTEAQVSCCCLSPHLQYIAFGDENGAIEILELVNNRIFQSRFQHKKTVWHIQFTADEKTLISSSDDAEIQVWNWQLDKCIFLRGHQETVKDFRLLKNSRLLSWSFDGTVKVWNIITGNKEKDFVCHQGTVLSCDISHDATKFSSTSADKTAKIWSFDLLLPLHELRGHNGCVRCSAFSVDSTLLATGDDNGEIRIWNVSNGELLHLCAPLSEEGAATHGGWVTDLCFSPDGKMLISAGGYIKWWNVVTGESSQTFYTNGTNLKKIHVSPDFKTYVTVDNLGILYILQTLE

Q: With `COc1ccc2[nH]cc(CCNC(=O)CC3C(=O)N(CCc4ccc(Cl)cc4Cl)CC(=O)N3CCc3cccs3)c2c1` (stereo not drawn) [LPT99, 2-(4-(2,4-dichlorophenethyl)-3,6-dioxo-1-(2-(thiophen-2-yl)ethyl)piperazin-2-yl)-N-(2-(5-methoxy-1H-indol-3-yl)ethyl)acetamide] as the molecule, how does the “ABR threshold shift induced by CisPt” value ([1]; IT LPT99-CD, 3 days after administration, especially 20, 28, or 40 kHz) read?
A: attenuated the ABR threshold shift

Q: What about the “auditory threshold shifts vs CisPt control group” value ([1]; IT LPT99 in hydrogel plus CisPt) of the same molecule?
A: significantly lower auditory threshold shifts

Q: And the “protection against CisPt-induced hearing loss” value ([1]; IT LPT99 solution (hydrogel), 63 μg/mL [100 μM] and 300 μg/mL [478 μM])?
A: protected against CisPt-induced hearing loss; also recorded: protective effects against CisPt-induced hearing loss

Q: What about the “structural aberrations in cultured mammalian cells” value [2] of the same molecule?
A: did not induce structural aberrations

Q: What about the “cytotoxicity in the presence or absence of ultraviolet-visible irradiation” value [3] of the same molecule?
A: not cytotoxic

Q: And the phototoxicity [3]?
A: not be phototoxic

Q: What about the MTD [4] of the same molecule?
A: 1000 mg/kg

Q: And the “genetic toxicity (Ames test)” value [5]?
A: no evidence of genetic toxicity

Q: And the time to precipitation ([6]; vials stored at 4 C)?
A: approximately 2 months

Q: And the “original drug concentration remaining in solution” value ([6]; vials stored at 4 C)?
A: less than 10%

Q: And the “original drug concentration remaining in solution” value ([6]; vials stored at room temperature)?
A: 100%

Q: What about the appearance of solution ([6]; vials stored at room temperature, greater than three months) of the same molecule?
A: remained clear with no evidence of drug precipitation

Q: And the inhibition at 10 µM [7]?
A: 78.9%

Q: And the “cellular proliferation of non-apoptotic cells” value (A549 cells)?
A: delayed cellular proliferation

Q: What about the “noise-induced ABR Threshold shift” value [8] of the same molecule?
A: back at basal levels

Q: What about the metabolized ([9]; dog microsomal and S9 hepatic fractions) of the same molecule?
A: > 90%

Q: And the metabolized ([9]; human microsomal and S9 hepatic fractions)?
A: > 90%

Q: And the metabolized ([9]; mouse microsomal and S9 hepatic fractions)?
A: > 90%

Q: What about the metabolized ([9]; rabbit microsomal and S9 hepatic fractions) of the same molecule?
A: > 90%

Q: What about the metabolized ([9]; rat microsomal and S9 hepatic fractions) of the same molecule?
A: > 90%

Q: What about the caspase-3 activation (caspase 3) of the same molecule?
A: reduced caspase-3 activation
